Assay results taken from publication PMC6017830, “Furan- and Thiophene-2-Carbonyl Amino Acid Derivatives Activate Hypoxia-Inducible Factor via Inhibition of Factor Inhibiting Hypoxia-Inducible Factor-1” (Molecules : A Journal of Synthetic Chemistry and Natural …, 2018).
“Also recorded” adds a separate entry of the source. One block for each molecule: values may come before it.

Key:
[1] = test system: HIF-HRE transcriptional activity in SKN:HRE-MLuc cells (reflects FIH-1 inhibition); experiment: HIF activity under hypoxia, HRE-MLuc luciferase reporter assay; assay type: cell-based, human; conditions: for activation at 100 µM / minimal effective concentration: Homo sapiens, SKN:HRE-MLuc cells, 3% O2, 24 h; for activation at 100 µM: read-out: 100 μM Activity (RLU intensity at 100 μM stimulation compared with the positive control DMOG); for minimal effective concentration: doses 100, 25, 6.3, 1.6 μM, DMOG 100 μM as positive control, read-out: 25% Activity (lower dose limit showing 25% of the RLU intensity of the positive control DMOG); for HIF activity (HRE-MLuc reporter), result in words: hypoxic conditions (3% O2), 24 h, reference compounds at 100 μM
Method: To evaluate HIF transactivation following FIH-1 inhibition […], we employed a luciferase reporter assay system in the human neuroblastoma cell line SK-N-BE(2)c. […] Hereafter these HRE reporter cells were designated SKN:HRE-MLuc cells.
SKN:HRE-MLuc (4 × 10^4) were incubated for 24 h on a 96 well culture plate. The medium was replaced with complete media and the test compounds (100, 25, 6.3 and 1.6 μM). DMSO (0.1%) was used as a vehicle control, DMOG (100 μM) and FG4592 (100 μM) were used as a PHDs or FIH-1 inhibitor. The cells were incubated for 24 h under a humidified atmosphere of 5% CO2 and 3% O2 at 37 °C. After incubation, the MLuc activity in culture media was measured with luciferase substrate (Takara, Shiga, Japan) by LB960 luminometer (Berthold, Wildbad, Germany). The HIF activity was calculated as the MLuc intensity, based on the vehicle and positive controls. The lower limit dose out of 100 μM, 25 μM, 6.3 μM, 1.6 μM was listed in Table 1 and Table 2, where 25% RLU intensity was measured using DMOG as a positive control.

SKN:HRE-MLuc cells = experiment: MTS assay (cellular toxicity); assay type: cell-based, human; conditions: for IC50: Homo sapiens, MTS assay
Source text: Next, we evaluated the activation of HIF by furan- and thiophene-2-carbonyl amino acid derivatives using the evaluation methods described above. Simultaneously, we investigated cellular toxicity for those derivatives with a 3-(4,5-dimethylthiazol-2-yl)-5-(3-carboxymethoxyphenyl)-2-(4-sulfophenyl)-2H-tetrazolium (MTS) assay. To indicate cellular membrane permeability, the partition coefficients, which are frequently represented by calculated logP (clogP) are listed in Table 1 and Table 2.
Cellular toxicity was measured using the CellTiter 96® Aqueous One Solution Cell Proliferation Assay kit (Promega, Madison, WI, USA). The cells were stimulated with each compound and treated with the CellTiter solution. After incubation for 3 h, the absorbance of the solutions at 492 nm was measured by Multiskan FC (Thermo Fisher Scientific, Waltham, MS, USA). As a negative control, wells with culture media were used. Wells treated with DMSO (0.1%) were used as a positive control. The IC50 values were determined using these controls.

[2] = test system: HIF-HRE transcriptional activity in SKN:HRE-MLuc cells (PHD inhibition); experiment: HIF activity under normoxia, HRE-MLuc luciferase reporter assay; assay type: cell-based, human; conditions: normoxic conditions, 100 μM, 24 h
Source text: We next measured HIF transactivity of FIH-1 inhibitors under normoxic conditions to confirm whether these inhibitors stabilized HIF via inhibiting PHD. Under normoxic conditions, inhibition of PHD dramatically activated HRE reporter. In contrast, when PHD was inhibited under hypoxic conditions, the rate of activation of the HRE reporter was low because hypoxia already partially activated the HRE reporter. The compounds showing HIF activation under hypoxic conditions (compounds 7, 9–11, 15–18, 28, 30, and 38) were evaluated by the luciferase assays in SKN:HRE-MLuc cells under normoxic conditions (Figure 6).
SKN:HRE-MLuc (4 × 10^4) were incubated for 24 h on a 96 well culture plate. The medium was replaced with complete media and the tested compounds (100 μM). DMSO (0.1%) was used as a negative control, and DMOG (100 μM) was used as a positive control. The cells were incubated for 24 h under a humidified atmosphere of 5% CO2 at 37 °C. After incubation, the MLuc activity in culture media was measured with the method descried above.

[3] = test system: CA9 mRNA in SK-N-BE(2)c cells; experiment: Quantitative RT-PCR of HIF target gene CA9; assay type: cell-based, human; conditions: 100 μM, 3% O2, SK-N-BE(2)c cells
Method: (§1) To confirm transactivation of HIF by our optimized compounds, the expression of HIF target genes was analyzed with quantitative polymerase chain reaction (PCR) in SK-N-BE(2)c cells. We attempted to analyze several HIF target genes including CA9, VEGF-α, EPO, and PHD3, under 3% O2 conditions.
(§2) Total RNA was extracted from cells using ISOGEN (Nippon Gene, Tokyo, Japan). cDNA syntheses were performed using random hexamer primers and SuperScript II Reverse Transcriptase (Thermo Fisher Scientific) following the manufacturer’s instructions. Quantitative reverse transcription polymerase-chain reaction (RT-PCR) analysis was performed as follows: amplification was done in an initial denaturing step at 96 °C for 2 min, followed by 35 cycles of PCR (96 °C for 1 min, 57 °C for 30 s, 72 °C for 30 s) using recombinant Taq polymerase (Takara, Otsu, Japan) with the respective primer pairs. For human carbonic anhydrase IX (CA9), 5′-CCTGGCTGCTGGTGACATCC-3′ and 5′-AAGGAAGTGGCATAATGAGC-3′. […] Data were analyzed using the comparative Ct method as means of relative quantification, and were normalized to an endogenous reference (β-actin) and relative to a calibrator (normalized Ct value obtained from cells treated with vehicle only). Data were expressed as 2^−ΔΔCt.

[4] = test system: HIF-1α mRNA in SK-N-BE(2)c cells; experiment: Quantitative RT-PCR of HIF-1α mRNA; assay type: cell-based, human; conditions: 100 μM, 3% O2, SK-N-BE(2)c cells
Method: as §1, §2

[5] = test system: HIF-HRE transcriptional activity in SKN:HRE-MLuc cells (reflects FIH-1 inhibition); experiment: HIF activity under hypoxia, HRE-MLuc luciferase reporter assay; assay type: cell-based, human; conditions: 100 μM; normoxic or hypoxic (3% O2), control or FIH-1 siRNA transfectants, Figure 3c (A vs E, F, G, H)

melting point: 93 to 96 °C
SMILES: COC(=O)CNC(=O)c1cc(-c2ccccc2)cs1 [Compound 26, Methyl (4-phenylthiophene-2-carbonyl)glycinate]
activation at 100 µM [1]: 0%
IC50 (SKN:HRE-MLuc cells): > 100 µM

melting point: 94 to 96 °C
SMILES: CCOC(=O)[C@H](Cc1ccccc1)NC(=O)c1cc(-c2ccccc2)cs1 [Compound 27, (S)-Ethyl (4-phenylthiophene-2-carbonyl)phenylalaninate]
activation at 100 µM [1]: 2%
IC50 (SKN:HRE-MLuc cells): > 100 µM

melting point: 150 to 152 °C
SMILES: COC(=O)[C@H](Cc1c[nH]c2ccccc12)NC(=O)c1cc(-c2ccccc2)cs1 [Compound 28, (S)-Methyl (4-phenylthiophene-2-carbonyl)tryptophanate]
activation at 100 µM [1]: 0%
minimal effective concentration [1]: 25 µM
HIF activity (HRE-MLuc reporter), result in words [1]: stabilized HIF and transactivated the HRE-driven MLuc reporter
IC50 (SKN:HRE-MLuc cells): > 100 µM
HIF transactivation (HRE-MLuc reporter), result in words [2]: did not elicit any HIF transactivation

melting point: 145 to 149 °C
SMILES: COC(=O)[C@@H](Cc1c[nH]c2ccccc12)NC(=O)c1cc(-c2ccccc2)cs1 [Compound 29, (R)-Methyl (4-phenylthiophene-2-carbonyl)tryptophanate]
activation at 100 µM [1]: 0%
IC50 (SKN:HRE-MLuc cells): > 100 µM

melting point: 176 to 178 °C
SMILES: COC(=O)[C@H](Cc1ccc(O)cc1)NC(=O)c1cc(-c2ccccc2)cs1 [Compound 30, (S)-Methyl (4-phenylthiophene-2-carbonyl)tyrosinate]
activation at 100 µM [1]: 0%
minimal effective concentration [1]: 6.3 µM
HIF activity (HRE-MLuc reporter), result in words [1]: stabilized HIF and transactivated the HRE-driven MLuc reporter
Cellular toxicity in the MTS assays, result in words (SKN:HRE-MLuc cells): showed cellular toxicity
IC50 (SKN:HRE-MLuc cells): 75 µM
HIF transactivation (HRE-MLuc reporter), result in words [2]: did not elicit any HIF transactivation

Further lines, the molecule ahead of its results:

SMILES: COC(=O)[C@H](Cc1ccccc1)NC(=O)c1ccc(C)o1 [Compound 7, (S)-Methyl (5-methylfuran-2-carbonyl)phenylalaninate]
activation at 100 µM [1]: 22%
minimal effective concentration [1]: 25 µM
HIF activity (HRE-MLuc reporter), result in words [1]: stabilized HIF and transactivated the HRE-driven MLuc reporter
IC50 (SKN:HRE-MLuc cells): > 100 µM
HIF transactivation (HRE-MLuc reporter), result in words [2]: did not elicit any HIF transactivation

SMILES: COC(=O)[C@H](Cc1c[nH]c2ccccc12)NC(=O)c1ccc(C)o1 [Compound 9, (S)-Methyl (5-methylfuran-2-carbonyl)tryptophanate]
activation at 100 µM [1]: 22%
minimal effective concentration [1]: 25 µM
IC50 (SKN:HRE-MLuc cells): > 100 µM
CA9 mRNA expression, result in words [3]: significantly elevated
HIF-1α mRNA level, result in words [4]: slightly suppressed by DMOG treatment but not by treatment with compound 9

SMILES: COC(=O)CNC(=O)c1ccc(-c2ccc(-c3ccccc3)cc2)s1 [Compound 31, Methyl (5-((1,1′-biphenyl)-4-yl)thiophene-2-carbonyl)glycinate]
activation at 100 µM [1]: 0%
IC50 (SKN:HRE-MLuc cells): > 100 µM
melting point: 183 to 185 °C

SMILES: COC(=O)[C@H](Cc1c[nH]c2ccccc12)NC(=O)c1cc2ccccc2o1 [Compound 38, (S)-Methyl (benzofuran-2-carbonyl)tryptophanate]
activation at 100 µM [1]: 25%
minimal effective concentration [1]: 25 µM
HIF activity (HRE-MLuc reporter), result in words [1]: stabilized HIF and transactivated the HRE-driven MLuc reporter
IC50 (SKN:HRE-MLuc cells): > 100 µM
HIF transactivation (HRE-MLuc reporter), result in words [2]: did not elicit any HIF transactivation

SMILES: COC(=O)CNC(=O)C(=O)OC [DMOG, dimethyloxalyl glycine, reference compound]
HIF-1α mRNA level, result in words [4]: slightly suppressed
HIF stabilization activity (HRE-MLuc reporter), result in words [5]: higher HIF stabilization activity

SMILES: Cc1nc(C(=O)NCC(=O)O)c(O)c2ccc(Oc3ccccc3)cc12 [FG4592, reference compound]
HIF activity (HRE-MLuc reporter), result in words [1]: only slightly stabilized HIF
HIF transactivation (HRE-MLuc reporter), result in words [2]: stabilized HIF compared with vehicle-treated cells; also recorded: showed significant HRE reporter activity
